Data taken from publication PMC8345109, “Optimization of New Catalytic Topoisomerase II Inhibitors as an Anti-Cancer Therapy” (Cancers, 2021).

How the values were obtained:
human TOP2A(431-1193) [1] = molecular target: T1, human TOP2A(431-1193) (Homo sapiens, UniProt P11388); experiment: EMSA, TOP2A(431-1193) with 5ZRF DNA oligo; assay type: binding; conditions: 2 uM protein, 300 nM oligo
T1 construct: 6xHis (N); made in house; host or cells: E. coli BL21 (DE3)

human TOP2A(431-1193) [2] = molecular target: T1, human TOP2A(431-1193); experiment: Fluorescence polarization (FP) assay of TOP2A-DNA interaction; assay type: binding; conditions: 500 nM protein, 0.01-200 µM compound
Experimental: Fluorescent polarization assay was performed in Corning® Low Volume 384-well Black Flat Bottom microplate. […] Triplicate reactions were transferred onto the microplate and incubated at room temperature for 20 min. Fluorescence polarization (FP) measurements were taken by Tecan Infinite F500 with the excitation wavelength of 485 nm and emission wavelength of 535 nm.
(§1) (A) EMSA was performed by purified full-length TOP2A or TOP2B proteins at a contraction of 300 nM with IRDay700 labeled 5ZRF DNA oligo at a concentration of 100 nM in the presence of −/+200 µM of ICRF193, T60, T637, and T638. […] Reactions were subjected to fluorescence […], which were detected by using the Multimode Microplate Reader (Infinite F500). (D) DNA cleavage assays were performed using full-length human TOP2A and TOP2B incubated with the supercoiled pHOT plasmid in the presence of 200 µM of etoposide plus 1, 100, or 200 µM of ICRF193, T60, T637, and T638. Reactions were separated on a DNA gel with ethidium bromide. All experiments were repeated three times, and one representative image was shown. Note: N, nicked DNA; L, linear DNA; and SC, supercoiled DNA.

TOP2A [3] = molecular target: T2, TOP2A (Homo sapiens, UniProt P11388); experiment: Supercoiled plasmid DNA relaxation assay, TOP2A; assay type: biochemical; conditions: 0.01-200 uM, three biological repeats
Experimental: (§2) Figure 2 T637 and T638 are TOP2A inhibitors. (A) K-DNA decatenation assays and (B) supercoiled plasmid DNA relaxation assays are used to measure TOP2A enzyme activity in the presence of 0.01–200 uM T637 or T638. Three biological repeats were performed with each concentration of the compounds, and the densitometry of the D-DNA bands from (A) and the SC bands from (B) was used to establish an inhibition curve for IC50 calculation.

[4] = tested on: cervical cancer line Hela; experiment: Hela cell growth (Incucyte); conditions: Homo sapiens, 120 h, read-out: Cell growth inhibition
Experimental: (A) K562 cells were treated with 0, 0.5, 1, 5, 10, 15, and 20 uM of T60 or 0, 0.5, 1, 5, 10, 15, 20, 50, and 100 uM of T637 and T638 for 24, 48, or 72 h. […] (B) NCI-H446 small cell lung cancer line and Hela cervical cancer line were treated with 0, 0.5, 1, 5, 10, 15, and 20 uM of T60 or 0, 0.5, 1, 5, 10, 15, 20, 50, and 100 uM of T637 and T638 for five days. Cell growth rates were measured by using Incucyte^TM. (C) K562 cells were treated with 0, 5, 10, 15, and 20 uM of T60, T637, or T638 for 48 h. Cytotoxicity was evaluated by measuring the LDH levels from the culture media. (D) K562 cells were treated with the vehicle or 10–20 µM of etoposide, T60, T637, or T638 for 4 h. Immunoblotting measured p-H2AXγ levels in cells with vinculin as a loading control.

full-length TOP2A [5] = molecular target: T3, full-length TOP2A (Homo sapiens, UniProt P11388); experiment: EMSA, full-length TOP2A with 5ZRF DNA oligo; assay type: binding; set-up: EMSA was performed by purified full-length TOP2A or TOP2B proteins; conditions: 200 µM compound, 300 nM protein, 100 nM oligo
Experimental: as §1

TOP2B = TOP2B (Homo sapiens, UniProt Q02880); experiment: Supercoiled plasmid DNA relaxation assay, TOP2B; assay type: biochemical; conditions: 0.01-200 uM, three biological repeats
Experimental: as §2, with “Figure 3” for “Figure 2”, “are TOP2B” for “are TOP2A”, “measure TOP2B” for “measure TOP2A enzyme”

full-length TOP2B = full-length TOP2B (Homo sapiens, UniProt Q02880); experiment: DNA cleavage assay, TOP2B; assay type: biochemical; set-up: DNA cleavage assays were performed using full-length human TOP2A and TOP2B; conditions: 200 µM etoposide plus 1, 100 or 200 µM compound, pHOT plasmid
Experimental: as §1

in vitro = conditions: mouse, liver microsomes, pH 7.4
Experimental: The reaction was initiated by adding NADPH, followed by incubation at 37 °C. […] The samples were then vortexed and centrifuged at 16,000 rpm for 10 min at 4 °C. The supernatants were collected and analyzed by LC/MS/MS to determine the remaining percentage and the half-life (t1/2) by integrating compound peaks and fitting the resulting AUC values and time points to a one-phase decay equation.

[6] = Crystal formation (precipitation) in cell cultures; assay type: physicochemical; conditions: up to 100 uM
Experimental: Both T637 and T638 have improved solubility in aqueous solution and culture media compared to T60 (Figure 1). […] When cells are growing in the culture media and treated with T60 at concentrations ≥50 uM for two days, T60 will form crystals, likely due to the altered pH values by the cells that induce T60 precipitation. […] These improvements in solubility allow higher doses of compounds to be used to treat cancer cells to reach maximum tumor suppression.

full-length TOP2A [7] = molecular target: T3, full-length TOP2A; experiment: DNA cleavage assay, TOP2A; assay type: biochemical; set-up: DNA cleavage assays were performed using full-length human TOP2A and TOP2B; conditions: 200 µM etoposide plus 1, 100 or 200 µM compound, pHOT plasmid
Experimental: as §1

human TOP2A(431-1193) [8] = molecular target: T1, human TOP2A(431-1193); experiment: Microscale thermophoresis (MST) binding assay; conditions: 5 nM NT647-labelled TOP2A(431-1193), 0.015-500 µM compound; read-out: Kd, direct TOP2-compound binding (MST)
Experimental: It was transformed into BL21 (DE3) E. coli cells and induced by 0.5 mM IPTG for 16 h at 16 °C. Cells were lysed by sonication and protein purification was by chromatography with the Ni-NTA beads (Invitrogen), followed by a size exclusion chromatography (Superdex 200). […] A serial dilution of the inhibitors was prepared with 100% DMSO and subsequently mixed with the labeled fluorescent protein in the assay buffer (20 mM Tris pH 8.0, 100 mM NaCl, 0.1% NP40, 0.2 mM TCEP, and 0.1 mM PMSF) at the final concentrations of 0.015–500 uM. The final concentration of the protein was 5 nM. The labeled protein and small molecules mix were allowed to incubate in the dark at room temperature for 5 min before filling the capillaries. MST assays were performed with 5–20% LED/excitation power and medium MST power using premium capillaries for Monolith NT.115. The data for the estimation of Kd were analyzed using MO Affinity Analysis software from Nanotemper.
(§3) (A) Ethidium bromide displacement assays were performed by mixing 100 µg/mL salmon sperm DNA with −/+2 µg/mL ethidium bromide and the indicated compounds. Reactions were subjected to fluorescence emission of 590 nm and excitation of 535 nm. Obtained signals were detected by using the Multimode Microplate Reader (Infinite F500). […] Reactions were subjected to 5–20% LED/excitation power and medium MST power using premium capillaries. Obtained signals were detected by using the Monolith NT.115 system. The change in thermophoresis is expressed as the change in the normalized fluorescence (ΔFnorm). MST assays were repeated with two control compounds, enzalutamide (Enza) and merbarone.

TOP2A [9] = molecular target: T2, TOP2A; experiment: K-DNA decatenation assay, TOP2A; assay type: biochemical; conditions: 0.01-200 uM, three biological repeats
Experimental: as §2

salmon sperm DNA = experiment: Ethidium bromide displacement assay; assay type: binding; conditions: 100 µg/mL salmon sperm DNA, 2 µg/mL ethidium bromide
Experimental: as §3

T1 sequence (P11388 431-1193): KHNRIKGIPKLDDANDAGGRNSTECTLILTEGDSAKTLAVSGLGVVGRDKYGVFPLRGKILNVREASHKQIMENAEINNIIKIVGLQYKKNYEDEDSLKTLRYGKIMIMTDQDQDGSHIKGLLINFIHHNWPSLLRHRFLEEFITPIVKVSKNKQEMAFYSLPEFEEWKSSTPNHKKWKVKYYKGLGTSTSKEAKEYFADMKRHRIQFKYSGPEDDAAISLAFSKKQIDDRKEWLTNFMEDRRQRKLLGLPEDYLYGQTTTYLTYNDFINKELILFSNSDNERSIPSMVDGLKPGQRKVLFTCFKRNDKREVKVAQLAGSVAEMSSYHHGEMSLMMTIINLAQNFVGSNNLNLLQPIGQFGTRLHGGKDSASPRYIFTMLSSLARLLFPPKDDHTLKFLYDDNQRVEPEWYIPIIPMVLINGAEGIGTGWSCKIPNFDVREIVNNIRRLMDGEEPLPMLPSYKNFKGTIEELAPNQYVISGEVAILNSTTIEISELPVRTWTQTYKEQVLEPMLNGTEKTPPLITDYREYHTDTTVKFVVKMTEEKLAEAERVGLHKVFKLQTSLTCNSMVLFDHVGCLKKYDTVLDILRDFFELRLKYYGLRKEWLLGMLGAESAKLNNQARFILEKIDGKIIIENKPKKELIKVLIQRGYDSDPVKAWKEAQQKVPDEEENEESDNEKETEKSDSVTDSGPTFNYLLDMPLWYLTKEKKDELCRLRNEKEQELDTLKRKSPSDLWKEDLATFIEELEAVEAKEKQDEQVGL
T3 sequence (P11388 whole entry): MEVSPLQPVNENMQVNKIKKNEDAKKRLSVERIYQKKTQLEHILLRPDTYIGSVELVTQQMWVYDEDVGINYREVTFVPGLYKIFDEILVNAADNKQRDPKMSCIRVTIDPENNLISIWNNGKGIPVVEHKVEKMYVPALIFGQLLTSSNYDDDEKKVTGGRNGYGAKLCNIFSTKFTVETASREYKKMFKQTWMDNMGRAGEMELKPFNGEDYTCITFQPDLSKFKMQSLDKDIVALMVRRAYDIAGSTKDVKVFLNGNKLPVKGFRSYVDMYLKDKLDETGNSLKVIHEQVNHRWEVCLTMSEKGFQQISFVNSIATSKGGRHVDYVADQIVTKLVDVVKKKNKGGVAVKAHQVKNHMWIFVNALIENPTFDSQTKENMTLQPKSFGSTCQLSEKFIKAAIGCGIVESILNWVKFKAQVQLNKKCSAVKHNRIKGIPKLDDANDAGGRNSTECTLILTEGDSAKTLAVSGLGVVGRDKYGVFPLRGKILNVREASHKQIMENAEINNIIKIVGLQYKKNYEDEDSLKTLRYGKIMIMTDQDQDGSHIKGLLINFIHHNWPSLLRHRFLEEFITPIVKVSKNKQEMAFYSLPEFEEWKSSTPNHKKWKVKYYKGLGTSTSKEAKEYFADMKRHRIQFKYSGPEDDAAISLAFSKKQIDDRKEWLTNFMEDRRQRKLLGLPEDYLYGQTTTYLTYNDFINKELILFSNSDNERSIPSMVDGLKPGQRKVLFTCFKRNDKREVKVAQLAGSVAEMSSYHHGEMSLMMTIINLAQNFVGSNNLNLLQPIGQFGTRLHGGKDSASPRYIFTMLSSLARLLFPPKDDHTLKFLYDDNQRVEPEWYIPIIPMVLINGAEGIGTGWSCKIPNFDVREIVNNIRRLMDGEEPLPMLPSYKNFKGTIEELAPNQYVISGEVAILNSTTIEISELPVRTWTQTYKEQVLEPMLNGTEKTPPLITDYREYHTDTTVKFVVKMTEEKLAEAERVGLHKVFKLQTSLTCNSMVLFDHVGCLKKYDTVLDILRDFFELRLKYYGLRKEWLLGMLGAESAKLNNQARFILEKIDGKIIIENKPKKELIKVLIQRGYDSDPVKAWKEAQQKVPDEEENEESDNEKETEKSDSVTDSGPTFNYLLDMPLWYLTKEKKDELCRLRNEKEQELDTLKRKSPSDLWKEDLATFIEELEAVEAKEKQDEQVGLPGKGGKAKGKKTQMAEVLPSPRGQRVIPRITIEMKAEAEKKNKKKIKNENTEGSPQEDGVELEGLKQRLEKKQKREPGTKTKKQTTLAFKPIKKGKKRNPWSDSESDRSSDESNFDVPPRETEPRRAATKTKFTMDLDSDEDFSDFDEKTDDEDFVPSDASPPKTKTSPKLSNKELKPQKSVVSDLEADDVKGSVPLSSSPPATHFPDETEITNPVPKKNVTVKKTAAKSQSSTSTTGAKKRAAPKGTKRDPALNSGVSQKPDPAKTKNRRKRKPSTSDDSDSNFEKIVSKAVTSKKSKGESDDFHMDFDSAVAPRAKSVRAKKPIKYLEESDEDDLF
T2 sequence (P11388 whole entry): as above
Chain of full-length TOP2B (Q02880 whole entry): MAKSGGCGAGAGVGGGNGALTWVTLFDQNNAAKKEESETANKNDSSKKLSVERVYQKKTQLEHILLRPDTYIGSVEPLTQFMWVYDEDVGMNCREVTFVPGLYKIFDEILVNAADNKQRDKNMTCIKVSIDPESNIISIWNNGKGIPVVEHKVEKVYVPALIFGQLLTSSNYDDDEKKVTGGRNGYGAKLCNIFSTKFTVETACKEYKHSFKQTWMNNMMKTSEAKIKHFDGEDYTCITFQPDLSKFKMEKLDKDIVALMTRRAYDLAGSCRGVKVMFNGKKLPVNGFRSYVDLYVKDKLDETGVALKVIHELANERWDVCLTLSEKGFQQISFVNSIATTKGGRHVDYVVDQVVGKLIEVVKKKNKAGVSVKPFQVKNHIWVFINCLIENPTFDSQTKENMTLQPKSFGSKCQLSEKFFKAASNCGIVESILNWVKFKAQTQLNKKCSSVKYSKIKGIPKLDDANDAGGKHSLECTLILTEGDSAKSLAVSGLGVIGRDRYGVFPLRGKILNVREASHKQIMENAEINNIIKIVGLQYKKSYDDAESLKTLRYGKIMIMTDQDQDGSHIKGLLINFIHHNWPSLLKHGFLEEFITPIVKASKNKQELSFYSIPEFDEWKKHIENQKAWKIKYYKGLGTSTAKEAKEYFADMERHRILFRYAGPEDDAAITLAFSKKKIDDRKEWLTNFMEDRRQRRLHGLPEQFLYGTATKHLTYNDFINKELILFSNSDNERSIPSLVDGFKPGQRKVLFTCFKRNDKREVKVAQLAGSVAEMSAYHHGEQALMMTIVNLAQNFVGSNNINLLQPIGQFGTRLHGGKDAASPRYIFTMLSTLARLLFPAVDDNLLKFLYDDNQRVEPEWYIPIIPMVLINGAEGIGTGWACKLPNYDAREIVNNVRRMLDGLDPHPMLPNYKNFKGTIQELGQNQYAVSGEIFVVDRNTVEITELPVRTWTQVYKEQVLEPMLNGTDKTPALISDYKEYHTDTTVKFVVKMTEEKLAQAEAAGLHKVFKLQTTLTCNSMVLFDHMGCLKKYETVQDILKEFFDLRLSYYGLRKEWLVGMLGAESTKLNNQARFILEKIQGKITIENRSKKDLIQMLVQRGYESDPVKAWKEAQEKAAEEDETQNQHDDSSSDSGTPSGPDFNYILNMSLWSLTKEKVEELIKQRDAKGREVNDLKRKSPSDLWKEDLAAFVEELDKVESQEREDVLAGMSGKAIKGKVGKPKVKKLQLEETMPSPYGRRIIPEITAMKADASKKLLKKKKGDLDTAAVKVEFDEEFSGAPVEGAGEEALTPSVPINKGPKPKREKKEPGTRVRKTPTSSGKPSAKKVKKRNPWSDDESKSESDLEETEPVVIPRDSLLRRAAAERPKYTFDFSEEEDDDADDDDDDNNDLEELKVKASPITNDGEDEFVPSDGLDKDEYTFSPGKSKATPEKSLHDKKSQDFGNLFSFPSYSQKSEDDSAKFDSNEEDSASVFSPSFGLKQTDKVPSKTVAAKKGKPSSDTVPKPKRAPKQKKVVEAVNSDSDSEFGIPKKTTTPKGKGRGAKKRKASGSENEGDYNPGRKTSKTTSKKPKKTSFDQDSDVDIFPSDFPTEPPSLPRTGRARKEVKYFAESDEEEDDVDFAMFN
Chain of TOP2B (Q02880 whole entry): as above

With Nc1cc(Nc2ccccc2)ccc1NC(=O)c1ccc[nH]c1=S [T638] the “Inhibition of TOP2A(431-1193)-DNA interaction (EMSA)” value (human TOP2A(431-1193) [1]) was “inhibited TOP2A–DNA interaction dose-dependently”, the “Effect on TOP2A-DNA interaction (FP)” value (human TOP2A(431-1193) [2]) was “reduced the TOP2A–DNA interaction in a dose-dependent manner” and the IC50 (TOP2A [3]) was 2100 nM. For the same compound, the inhibition at 100 µM [4] was 100%, the “Block of TOP2A-DNA oligo complex formation (EMSA)” value (full-length TOP2A [5]) was “block” and the IC50 (TOP2B) was 7.5 µM. For the same compound, the “Prevention of etoposide-induced DNA cleavage, TOP2B” value (full-length TOP2B) was “did prevent etoposide-induced DNA cleavage”, the half-life at 1 uM (in vitro) was > 1000 min and the microsomal CLint at 1 uM (in vitro) was 2 µL/min/mg. The “Crystal formation in cell cultures, in words” value [6] was “no crystal formation”, the “Prevention of etoposide-induced DNA cleavage, TOP2A” value (full-length TOP2A [7]) was “did prevent etoposide-induced DNA cleavage” and the Kd (human TOP2A(431-1193) [8]) was ~87 µM. For the same compound, the IC50 (TOP2A [9]) was ~700 nM and the “Fluorescence induced by the ethidium bromide/DNA complex reduced by increasing doses (DNA intercalation)” value (salmon sperm DNA) was “not”.
